Assay results as given in patent US10030064B2, “Mammalian cell culture processes for protein production” (priority 2009, dated 2018).

Tested on: GILZ (glucocorticoid-induced leucine zipper)
Assay: qRT-PCR of GILZ gene expression in CHO cells
Assay type: cell-based, Chinese hamster
Settings: 1 μM DEX added day 2
Description: Purified RNA was treated with RNasefree DNaseI (Qiagen) and then used as a template to synthesize the first-strand cDNA using RT^2 First Strand Kit (SA Biosciences, Frederick, Md.). Expression of GILZ was quantitatively determined using GILZ specific TaqMan MGB probe (6-FAM-[…]) and primers (Forward: 5-[…]-3 and Reverse: 5-[…]-3). 20 ng of cDNA was amplified using 900 nM primers and 250 nM probe in 1× TaqMan Fast Universal PCR Master Mix (Applied Biosystems, Carlsbad, Calif.). Reactions were run in triplicate on the Applied Biosystems 7500 Fast Real-Time PCR System using the universal cycling parameters (20 s 95° C., 40 cycles of 3 s 95° C., 30 s 60° C.). Parallel reactions were set up on the same plate analyzing β-Actin in each sample as an endogenous control. The threshold cycle of each gene was normalized against the threshold cycle of “housekeeping gene” […]. Normalized changes in gene expression with respect to the control were calculated using delta-delta threshold cycle method (Livak and Schmittgen, 2001).
GILZ was analyzed using qRT-PCR to validate the gene expression profiles obtained by microarray analysis. […] Parallel reactions were set up on the same plate analyzing β-Actin in each sample as an endogenous control.

SMILES: C[C@@H]1C[C@H]2[C@@H]3CCC4=CC(=O)C=C[C@]4(C)[C@@]3(F)[C@@H](O)C[C@]2(C)[C@@]1(O)C(=O)CO [DEX, dexamethasone]
- normalized expression profile change of GILZ (qRT-PCR) (day 5 samples): 7.66±1.08
- normalized expression profile change of GILZ (qRT-PCR) (day 8 samples): 10.48±2.16
